According to ChEMBL document CHEMBL1201862, “PubChem BioAssay data set” (2004):
Several values for one entry are separate records, joined by “and”; a condition that tells them apart may be missing. Identical values can stand only once.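 48-hour exposure; five concentrations; linearly interpolated endpoints. GI50: concentration for 50% inhibition of growth.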 Activity calls are given as the source filed them. Cut-off read from the data, not from the text of the source: active = GI50 up to about 1.1 µM and inactive = higher. Peptide text beside a SMILES is read from it. * marks the point of attachment. Boc = CC(C)(C)OC(=O)*

How the values were obtained:
Experiment in all cases: NCI tumour cell line growth inhibition, 48 h
UACC-257 = system: UACC-257
UACC-62 = system: UACC-62
DU-145 = system: DU-145
NCI-H226 = system: NCI-H226
BT-549 = system: BT-549
K562 = system: K562
SR = system: SR
OVCAR-3 = system: OVCAR-3
786-0 = system: 786-0
OVCAR-4 = system: OVCAR-4
PC-3 = system: PC-3
SW-620 = system: SW-620
SF-268 = system: SF-268
Hs-578T = system: Hs-578T
SK-MEL-2 = system: SK-MEL-2
T47D = system: T47D
NCI-H522 = system: NCI-H522
ACHN = system: ACHN
EKVX = system: EKVX

SMILES	GI50 (UACC-257)	GI50 (UACC-62)	GI50 (DU-145)	GI50 (NCI-H226)	GI50 (BT-549)	GI50 (K562)	GI50 (SR)	GI50 (OVCAR-3)	GI50 (786-0)	GI50 (OVCAR-4)	GI50 (PC-3)	GI50 (SW-620)	GI50 (SF-268)	GI50 (Hs-578T)	GI50 (SK-MEL-2)	GI50 (T47D)	GI50 (NCI-H522)	GI50 (ACHN)	GI50 (EKVX)
COC(=O)C1=CS/C(=C2\S[C@@H]3[C@H](S2)[C@H]2C=C[C@@H]3C2)S1	66.5 µM (inactive)	12.5 µM (inactive)	> 100 µM (inactive)	87.7 µM (inactive)	> 100 µM (inactive)	2.74 µM (inactive)	3.4 µM (inactive)	33.2 µM (inactive)	92 µM (inactive)	> 100 µM (inactive)	51.6 µM (inactive)	13.1 µM (inactive)	38.7 µM (inactive)	81.3 µM (inactive)	32.5 µM (inactive)	> 100 µM (inactive)	–	–	–
O=C1/C(=C\c2cccc(Oc3ccccc3)c2)S(=O)(=O)C(c2ccccc2)N1Cc1ccccc1 (centres undefined)	22.9 µM (inactive)	19.1 µM (inactive)	33 µM (inactive)	–	29 µM (inactive)	26 µM (inactive)	14.9 µM (inactive)	13.8 µM (inactive)	19.6 µM (inactive)	–	24.7 µM (inactive)	40.4 µM (inactive)	–	13.6 µM (inactive)	16.3 µM (inactive)	32.8 µM (inactive)	13.9 µM (inactive)	23 µM (inactive)	25.8 µM (inactive)
O=C(O)c1cccc(S(=O)(=O)NN2C(=O)CSC2c2ccccc2)c1 (centres undefined)	> 100 µM (inactive)	> 100 µM (inactive)	> 100 µM (inactive)	> 100 µM (inactive)	> 100 µM (inactive)	> 100 µM (inactive)	32.9 µM (inactive)	> 100 µM (inactive)	> 100 µM (inactive)	–	> 100 µM (inactive)	> 100 µM (inactive)	> 100 µM (inactive)	> 100 µM (inactive)	> 100 µM (inactive)	> 100 µM (inactive)	27.6 µM (inactive)	> 100 µM (inactive)	> 100 µM (inactive)
CC(=O)OCC1OC(SC2=NC(=O)CS2)C(OC(C)=O)C(OC(C)=O)C1OC(C)=O (centres undefined)	> 100 µM (inactive)	> 100 µM (inactive) and 76.6 µM (inactive)	> 100 µM (inactive)	> 100 µM (inactive)	93.5 µM (inactive) and 62.7 µM (inactive)	43.5 µM (inactive) and 40 µM (inactive)	39.6 µM (inactive) and 67.5 µM (inactive)	> 100 µM (inactive)	> 100 µM (inactive)	–	84.1 µM (inactive) and 95.5 µM (inactive)	> 100 µM (inactive)	> 100 µM (inactive)	> 100 µM (inactive)	–	> 100 µM (inactive)	47 µM (inactive) and 78.9 µM (inactive)	> 100 µM (inactive)	–
O=c1[nH][nH]c(=O)n1Cc1cccc(Cn2c(=O)[nH][nH]c2=O)c1	> 100 µM (inactive)	> 100 µM (inactive)	> 100 µM (inactive)	> 100 µM (inactive)	> 100 µM (inactive)	> 100 µM (inactive)	> 100 µM (inactive)	> 100 µM (inactive)	> 100 µM (inactive)	> 100 µM (inactive)	> 100 µM (inactive)	> 100 µM (inactive)	> 100 µM (inactive)	> 100 µM (inactive)	> 100 µM (inactive)	> 100 µM (inactive)	> 100 µM (inactive)	–	> 100 µM (inactive)
CNC(=O)C1CCCN1C(=O)C(Cc1c[nH]cn1)NC(=O)C1CCC(=O)N1 (centres undefined)	–	> 100 µM (inactive)	> 100 µM (inactive)	> 100 µM (inactive)	> 100 µM (inactive)	> 100 µM (inactive)	> 100 µM (inactive)	> 100 µM (inactive)	85.5 µM (inactive)	> 100 µM (inactive)	> 100 µM (inactive)	> 100 µM (inactive)	> 100 µM (inactive)	> 100 µM (inactive)	–	> 100 µM (inactive)	> 100 µM (inactive)	> 100 µM (inactive)	> 100 µM (inactive)
COC(=O)c1c(C#N)[nH]c(-c2ccsc2)c1C(=O)OC	40.6 µM (inactive)	76 µM (inactive)	> 100 µM (inactive)	> 100 µM (inactive)	> 100 µM (inactive)	78 µM (inactive)	> 100 µM (inactive)	> 100 µM (inactive)	> 100 µM (inactive)	–	70.6 µM (inactive)	> 100 µM (inactive)	> 100 µM (inactive)	> 100 µM (inactive)	> 100 µM (inactive)	37.1 µM (inactive)	> 100 µM (inactive)	> 100 µM (inactive)	> 100 µM (inactive)
Cc1nnc(N)nc1/C=C/c1c(O)ccc2ccccc12	32.2 µM (inactive)	21.5 µM (inactive)	52.8 µM (inactive)	21.5 µM (inactive)	37.9 µM (inactive)	38.5 µM (inactive)	44.4 µM (inactive)	–	32.4 µM (inactive)	20 µM (inactive)	22.8 µM (inactive)	31.6 µM (inactive)	28.7 µM (inactive)	26.2 µM (inactive)	15.2 µM (inactive)	36.7 µM (inactive)	–	13.1 µM (inactive)	13.9 µM (inactive)
COc1cccc(-c2cc(O)c3cc(C)cnc3n2)c1	> 100 µM (inactive)	0.0258 µM (active)	0.308 µM (active)	0.0757 µM (active)	> 100 µM (inactive)	0.0381 µM (active)	0.0297 µM (active)	0.049 µM (active)	0.0488 µM (active)	> 67.1 µM (inactive)	0.0467 µM (active)	0.06 µM (active)	0.594 µM (active)	0.0495 µM (active)	0.0293 µM (active)	> 100 µM (inactive)	0.0389 µM (active)	0.0625 µM (active)	–
CSCCC(NC(=O)C(CC(C)C)NC(=O)CNC(=O)OC(C)(C)C)C(=O)N(C)C (stereo not drawn) (Boc-Gly-Leu-Met-NMe2; configuration not given here)	> 100 µM (inactive)	> 100 µM (inactive)	> 100 µM (inactive)	> 100 µM (inactive)	> 100 µM (inactive)	> 100 µM (inactive)	> 100 µM (inactive)	–	> 100 µM (inactive)	> 100 µM (inactive)	> 100 µM (inactive)	> 100 µM (inactive)	> 100 µM (inactive)	4 µM (inactive)	> 100 µM (inactive)	> 100 µM (inactive)	> 100 µM (inactive)	> 100 µM (inactive)	> 100 µM (inactive)
CC(C)(C)NCC(O)COc1cccc2[nH]c(C#N)cc12 (centres undefined) [CYANOPINDOLOL]	–	> 100 µM (inactive)	> 100 µM (inactive)	> 100 µM (inactive)	> 100 µM (inactive)	–	> 100 µM (inactive)	> 100 µM (inactive)	> 100 µM (inactive)	> 100 µM (inactive)	> 100 µM (inactive)	> 100 µM (inactive)	> 100 µM (inactive)	> 100 µM (inactive)	> 100 µM (inactive)	> 100 µM (inactive)	27.2 µM (inactive)	> 100 µM (inactive)	> 100 µM (inactive)
